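Values below derive from 48-hour exposures of cells grown in 96-well plates, with endpoints linearly interpolated between the two concentrations bracketing the appropriate inhibition level. The concentration for 50% growth inhibition is given as GI50.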 Calls of active or inactive are those of the source. Cut-off read from the data, not from the text of the source: active = GI50 up to about 1.1 µM and inactive = higher.
Columns and labels:
Experiment in all cases: NCI tumour cell line growth inhibition, 48 h
[1] = tested on: Malme-3M
[2] = tested on: HOP-92
[3] = tested on: TK-10
[4] = tested on: UACC-257
[5] = tested on: SW-620
[6] = tested on: SK-MEL-2
[7] = tested on: HCC 2998
[8] = tested on: MOLT-4
[9] = tested on: T47D
[10] = tested on: A549
[11] = tested on: CAKI-1
[12] = tested on: DU-145
[13] = tested on: MDA-MB-231
[14] = tested on: UACC-62
[15] = tested on: PC-3
[16] = tested on: HL-60
[17] = tested on: 786-0
[18] = tested on: BT-549
[19] = tested on: EKVX
[20] = tested on: SNB-75
[21] = tested on: HOP-62
[22] = tested on: SF-295
[23] = tested on: Hs-578T
[24] = tested on: SK-MEL-5
[25] = tested on: IGROV-1
[26] = tested on: SNB-19
[27] = tested on: NCI-H522
[28] = tested on: LOX IMVI
[29] = tested on: COLO 205
[30] = tested on: HCT-15
[31] = tested on: OVCAR-3
[32] = tested on: MDA-N
[33] = tested on: HCT-116
[34] = tested on: NCI-H460
[35] = tested on: SK-MEL-28
[36] = tested on: RXF 393
[37] = tested on: CCRF-CEM
[38] = tested on: OVCAR-4
[39] = tested on: M14
[40] = tested on: KM12
[41] = tested on: NCI-H23
[42] = tested on: K562
[43] = tested on: U-251
[44] = tested on: NCI-H226
[45] = tested on: OVCAR-8
[46] = tested on: UO-31
[47] = tested on: ACHN
[48] = tested on: SF-268
[49] = tested on: SN12C
[50] = tested on: OVCAR-5
[51] = tested on: NCI/ADR-RES
[52] = tested on: SF-539
[53] = tested on: MCF7
[54] = tested on: SK-OV-3
[55] = tested on: A498
[56] = tested on: MDA-MB-435
[57] = tested on: HT-29
[58] = tested on: RPMI-8226

Cc1cn(C2OC(CO)C(O)C2F)c(=O)[nH]c1=O (stereo not drawn)
GI50 [1]: > 100 µM (inactive) | GI50 [2]: > 100 µM (inactive) | GI50 [3]: > 100 µM (inactive) | GI50 [4]: > 100 µM (inactive) | GI50 [5]: > 100 µM (inactive) | GI50 [6]: > 100 µM (inactive) | GI50 [7]: > 100 µM (inactive) | GI50 [8]: 64.3 µM (inactive) | GI50 [9]: > 100 µM (inactive) | GI50 [10]: 61.5 µM (inactive) | GI50 [11]: > 100 µM (inactive) | GI50 [12]: 70.1 µM (inactive) | GI50 [13]: > 100 µM (inactive) | GI50 [14]: 64.3 µM (inactive) | GI50 [15]: > 100 µM (inactive) | GI50 [16]: > 100 µM (inactive) | GI50 [17]: 87.5 µM (inactive) | GI50 [18]: 87.1 µM (inactive) | GI50 [19]: > 100 µM (inactive) | GI50 [20]: > 100 µM (inactive) | GI50 [21]: 95.3 µM (inactive) | GI50 [22]: > 100 µM (inactive) | GI50 [23]: > 100 µM (inactive) | GI50 [24]: > 100 µM (inactive) | GI50 [25]: > 100 µM (inactive) | GI50 [26]: > 100 µM (inactive) | GI50 [27]: 19.3 µM (inactive) | GI50 [28]: 24.1 µM (inactive) | GI50 [29]: > 100 µM (inactive) | GI50 [30]: > 100 µM | GI50 [31]: > 100 µM (inactive) | GI50 [32]: > 100 µM (inactive) | GI50 [33]: 73.3 µM (inactive) | GI50 [34]: 21.7 µM (inactive) | GI50 [35]: > 100 µM (inactive) | GI50 [36]: 43 µM (inactive) | GI50 [37]: 12.2 µM (inactive) | GI50 [38]: > 100 µM (inactive) | GI50 [39]: 41.8 µM (inactive) | GI50 [40]: > 100 µM (inactive) | GI50 [41]: > 100 µM (inactive) | GI50 [42]: 59.7 µM (inactive) | GI50 [43]: > 100 µM (inactive) | GI50 [44]: > 100 µM (inactive) | GI50 [45]: > 100 µM (inactive) | GI50 [46]: > 100 µM (inactive) | GI50 [47]: 89.7 µM (inactive) | GI50 [48]: > 100 µM (inactive) | GI50 [49]: > 100 µM (inactive) | GI50 [50]: > 100 µM (inactive) | GI50 [51]: 64 µM (inactive) | GI50 [52]: > 100 µM (inactive) | GI50 [53]: > 100 µM (inactive) | GI50 [54]: > 100 µM (inactive) | GI50 [55]: > 100 µM (inactive) | GI50 [56]: > 100 µM (inactive) | GI50 [57]: > 100 µM (inactive)

O=C(NCCN(CCNC(=O)c1cccc(=O)n1O)CCN(CCNC(=O)c1cccc(=O)n1O)CCNC(=O)c1cccc(=O)n1O)c1cccc(=O)n1O
GI50 [1]: 60.8 µM (inactive) | GI50 [2]: > 100 µM (inactive) | GI50 [3]: > 100 µM (inactive) | GI50 [4]: > 100 µM (inactive) | GI50 [5]: > 100 µM (inactive) | GI50 [6]: > 100 µM (inactive) | GI50 [58]: > 100 µM (inactive) | GI50 [7]: > 100 µM (inactive) | GI50 [9]: > 100 µM (inactive) | GI50 [10]: > 100 µM (inactive) | GI50 [11]: > 100 µM (inactive) | GI50 [12]: > 100 µM (inactive) | GI50 [13]: > 100 µM (inactive) | GI50 [14]: > 100 µM (inactive) | GI50 [15]: > 100 µM (inactive) | GI50 [16]: 44.2 µM (inactive) | GI50 [17]: > 100 µM (inactive) | GI50 [18]: > 100 µM (inactive) | GI50 [20]: > 100 µM (inactive) | GI50 [21]: > 100 µM (inactive) | GI50 [22]: > 100 µM (inactive) | GI50 [23]: > 100 µM (inactive) | GI50 [24]: > 100 µM (inactive) | GI50 [25]: > 100 µM (inactive) | GI50 [26]: > 100 µM (inactive) | GI50 [27]: > 100 µM (inactive) | GI50 [28]: > 100 µM (inactive) | GI50 [29]: > 100 µM (inactive) | GI50 [30]: > 100 µM | GI50 [31]: > 100 µM (inactive) | GI50 [32]: > 100 µM (inactive) | GI50 [33]: > 100 µM (inactive) | GI50 [34]: > 100 µM (inactive) | GI50 [35]: > 100 µM (inactive) | GI50 [36]: > 100 µM (inactive) | GI50 [37]: > 100 µM (inactive) | GI50 [38]: > 100 µM (inactive) | GI50 [39]: > 100 µM (inactive) | GI50 [40]: > 100 µM (inactive) | GI50 [41]: > 100 µM (inactive) | GI50 [42]: > 100 µM (inactive) | GI50 [43]: > 100 µM (inactive) | GI50 [44]: > 100 µM (inactive) | GI50 [45]: > 100 µM (inactive) | GI50 [46]: > 100 µM (inactive) | GI50 [47]: > 100 µM (inactive) | GI50 [48]: > 100 µM (inactive) | GI50 [49]: > 100 µM (inactive) | GI50 [50]: > 100 µM (inactive) | GI50 [51]: > 100 µM (inactive) | GI50 [52]: > 100 µM (inactive) | GI50 [53]: > 100 µM (inactive) | GI50 [54]: > 100 µM (inactive) | GI50 [55]: > 100 µM (inactive) | GI50 [56]: > 100 µM (inactive) | GI50 [57]: 89.9 µM (inactive)
